Reference: PubChem BioAssay AID1918994 (Molecular Pharmacology Branch, DTP, NCI, 2023)

Tested on: 292921-168-R-J2-PDC complex spheroid growth
Experiment: Anticancer human tumor 292921-168-R-J2-PDC patient-derived pancreatic carcinoma cell line growth inhibition [AhR]
Conditions: for IC50: curve of first compound; for viability, T/C: stronger effect = lower value
Procedure, shortened: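 Agents were dosed in half-log steps down from roughly clinical Cmax, or from 10 microM where Cmax was unknown, alone and with AhR antagonists. Read-out: percent test/control growth of tumor spheroids containing HUVEC and MSC stromal cells.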

[1] = second compound 0.1 µM, first compound 0.00949 µM
[2] = second compound 0.1 µM, first compound 0.03 µM
[3] = second compound 0.1 µM, first compound 0.0949 µM
[4] = second compound 0.1 µM, first compound 0.3 µM
[5] = second compound 0.316 µM, first compound 0.00949 µM
[6] = second compound 0.316 µM, first compound 0.03 µM
[7] = second compound 0.316 µM, first compound 0.0949 µM
[8] = second compound 0.316 µM, first compound 0.3 µM
[9] = second compound 1 µM, first compound 0.00949 µM
[10] = second compound 1 µM, first compound 0.03 µM
[11] = second compound 1 µM, first compound 0.0949 µM
[12] = second compound 1 µM, first compound 0.3 µM
[13] = second compound 3.16 µM, first compound 0.00949 µM
[14] = second compound 3.16 µM, first compound 0.03 µM
[15] = second compound 3.16 µM, first compound 0.0949 µM
[16] = second compound 3.16 µM, first compound 0.3 µM
[17] = second compound 10 µM, first compound 0.00949 µM
[18] = second compound 10 µM, first compound 0.03 µM
[19] = second compound 10 µM, first compound 0.0949 µM
[20] = second compound 10 µM, first compound 0.3 µM
[21] = second compound 0.1 µM, first compound 0.0316 µM
[22] = second compound 0.1 µM, first compound 0.1 µM
[23] = second compound 0.1 µM, first compound 0.316 µM
[24] = second compound 0.1 µM, first compound 1 µM
[25] = second compound 0.1 µM, first compound 3.16 µM
[26] = second compound 0.1 µM, first compound 10 µM
[27] = second compound 0.316 µM, first compound 0.0316 µM
[28] = second compound 0.316 µM, first compound 0.1 µM
[29] = second compound 0.316 µM, first compound 0.316 µM
[30] = second compound 0.316 µM, first compound 1 µM
[31] = second compound 0.316 µM, first compound 3.16 µM
[32] = second compound 0.316 µM, first compound 10 µM
[33] = second compound 1 µM, first compound 0.0316 µM
[34] = second compound 1 µM, first compound 0.1 µM
[35] = second compound 1 µM, first compound 0.316 µM
[36] = second compound 1 µM, first compound 1 µM
[37] = second compound 1 µM, first compound 3.16 µM
[38] = second compound 1 µM, first compound 10 µM
[39] = second compound 3.16 µM, first compound 0.0316 µM
[40] = second compound 3.16 µM, first compound 0.1 µM
[41] = second compound 3.16 µM, first compound 0.316 µM
[42] = second compound 3.16 µM, first compound 1 µM
[43] = second compound 3.16 µM, first compound 3.16 µM
[44] = second compound 3.16 µM, first compound 10 µM
[45] = second compound 10 µM, first compound 0.0316 µM
[46] = second compound 10 µM, first compound 0.1 µM
[47] = second compound 10 µM, first compound 0.316 µM
[48] = second compound 10 µM, first compound 1 µM
[49] = second compound 10 µM, first compound 3.16 µM
[50] = second compound 10 µM, first compound 10 µM
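Note: spheroids exposed to compounds for seven days after three days of growth.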

Compound: CCN(c1cc(-c2ccc(CN3CCOCC3)cc2)cc(C(=O)NCc2c(C)cc(C)[nH]c2=O)c1C)C1CCOCC1 + CC(CO)NC(=O)c1cc(-c2ccc(Cl)cc2)nn(-c2cnn(C)c2)c1=O
- IC50 (second compound 0.1 µM): > 3000 nM
- IC50 (second compound 0.316 µM): > 3000 nM
- IC50 (second compound 1 µM): > 3000 nM
- IC50 (second compound 3.16 µM): > 3000 nM
- IC50 (second compound 10 µM): > 3000 nM
- viability, T/C [1]: 103%
- viability, T/C [2]: 100%
- viability, T/C [3]: 102%
- viability, T/C [4]: 93.1%
- viability, T/C (second compound 0.1 µM, first compound 0.949 µM): 96.9%
- viability, T/C (second compound 0.1 µM, first compound 3 µM): 93.9%
- viability, T/C [5]: 107%
- viability, T/C [6]: 102%
- viability, T/C [7]: 100%
- viability, T/C [8]: 103%
- viability, T/C (second compound 0.316 µM, first compound 0.949 µM): 94.8%
- viability, T/C (second compound 0.316 µM, first compound 3 µM): 87%
- viability, T/C [9]: 102%
- viability, T/C [10]: 99%
- viability, T/C [11]: 110%
- viability, T/C [12]: 97%
- viability, T/C (second compound 1 µM, first compound 0.949 µM): 95.5%
- viability, T/C (second compound 1 µM, first compound 3 µM): 86.5%
- viability, T/C [13]: 91.9%
- viability, T/C [14]: 89.4%
- viability, T/C [15]: 104%
- viability, T/C [16]: 85%
- viability, T/C (second compound 3.16 µM, first compound 0.949 µM): 81%
- viability, T/C (second compound 3.16 µM, first compound 3 µM): 83%
- viability, T/C [17]: 69.1%
- viability, T/C [18]: 71.1%
- viability, T/C [19]: 76.4%
- viability, T/C [20]: 76.2%
- viability, T/C (second compound 10 µM, first compound 0.949 µM): 69.9%
- viability, T/C (second compound 10 µM, first compound 3 µM): 72.9%

Compound: CC(C)c1c(-c2ccccc2)nc2c(C#N)c[nH]n2c1=O + CC(CO)NC(=O)c1cc(-c2ccc(Cl)cc2)nn(-c2cnn(C)c2)c1=O
- IC50 (second compound 0.1 µM): > 10000 nM
- IC50 (second compound 0.316 µM): > 10000 nM
- IC50 (second compound 1 µM): > 10000 nM
- IC50 (second compound 3.16 µM): > 10000 nM
- IC50 (second compound 10 µM): > 10000 nM
- viability, T/C [21]: 104%
- viability, T/C [22]: 105%
- viability, T/C [23]: 104%
- viability, T/C [24]: 105%
- viability, T/C [25]: 109%
- viability, T/C [26]: 101%
- viability, T/C [27]: 103%
- viability, T/C [28]: 102%
- viability, T/C [29]: 99.6%
- viability, T/C [30]: 96%
- viability, T/C [31]: 101%
- viability, T/C [32]: 89.5%
- viability, T/C [33]: 109%
- viability, T/C [34]: 102%
- viability, T/C [35]: 104%
- viability, T/C [36]: 97.1%
- viability, T/C [37]: 94.9%
- viability, T/C [38]: 99.6%
- viability, T/C [39]: 86.8%
- viability, T/C [40]: 91.9%
- viability, T/C [41]: 94.1%
- viability, T/C [42]: 89.8%
- viability, T/C [43]: 80.8%
- viability, T/C [44]: 84.2%
- viability, T/C [45]: 69.7%
- viability, T/C [46]: 67.3%
- viability, T/C [47]: 71.2%
- viability, T/C [48]: 63.8%
- viability, T/C [49]: 62.6%
- viability, T/C [50]: 68.5%

Compound: CC(C)CC(NC(=O)C(Cc1ccccc1)NC(=O)c1cnccn1)B(O)O (stereo not given) + Cc1ccccc1N=Nc1ccc(NC(=O)c2ccnn2C)c(C)c1
- IC50 (second compound 0.1 µM): 6.4 nM
- IC50 (second compound 0.316 µM): 6.09 nM
- IC50 (second compound 1 µM): 5.95 nM
- IC50 (second compound 3.16 µM): 5.13 nM
- IC50 (second compound 10 µM): 3.97 nM
- viability, T/C (second compound 0.1 µM, first compound 0.000949 µM): 91.6%
- viability, T/C (second compound 0.1 µM, first compound 0.003 µM): 110%
- viability, T/C [1]: 23.4%
- viability, T/C [2]: 1.67%
- viability, T/C [3]: 0.43%
- viability, T/C [4]: 0.32%
- viability, T/C (second compound 0.316 µM, first compound 0.000949 µM): 82%
- viability, T/C (second compound 0.316 µM, first compound 0.003 µM): 102%
- viability, T/C [5]: 23.9%
- viability, T/C [6]: 1.24%
- viability, T/C [7]: 3.16%
- viability, T/C [8]: 0.68%
- viability, T/C (second compound 1 µM, first compound 0.000949 µM): 82.3%
- viability, T/C (second compound 1 µM, first compound 0.003 µM): 94.3%
- viability, T/C [9]: 23.8%
- viability, T/C [10]: 1.24%
- viability, T/C [11]: 0.41%
- viability, T/C [12]: 0.93%
- viability, T/C (second compound 3.16 µM, first compound 0.000949 µM): 77.5%
- viability, T/C (second compound 3.16 µM, first compound 0.003 µM): 82.8%
- viability, T/C [13]: 15.3%
- viability, T/C [14]: 1.68%
- viability, T/C [15]: 2.65%
- viability, T/C [16]: 0.81%
- viability, T/C (second compound 10 µM, first compound 0.000949 µM): 59.9%
- viability, T/C (second compound 10 µM, first compound 0.003 µM): 62%
- viability, T/C [17]: 15.7%
- viability, T/C [18]: 1.7%
- viability, T/C [19]: 1.05%
- viability, T/C [20]: 0.32%

Compound: COc1cc(C2c3cc4c(cc3C(OC3OC5COC(C)OC5C(O)C3O)C3COC(=O)C23)OCO4)cc(OC)c1O (stereo not given) + CC(CO)NC(=O)c1cc(-c2ccc(Cl)cc2)nn(-c2cnn(C)c2)c1=O
- IC50 (second compound 0.1 µM): 645 nM
- IC50 (second compound 0.316 µM): 563 nM
- IC50 (second compound 1 µM): 542 nM
- IC50 (second compound 3.16 µM): 421 nM
- IC50 (second compound 10 µM): 163 nM
- viability, T/C [21]: 95.7%
- viability, T/C [22]: 92.4%
- viability, T/C [23]: 67.9%
- viability, T/C [24]: 38%
- viability, T/C [25]: 22.6%
- viability, T/C [26]: 13.7%
- viability, T/C [27]: 89.3%
- viability, T/C [28]: 85.5%
- viability, T/C [29]: 65%
- viability, T/C [30]: 33.6%
- viability, T/C [31]: 24.4%
- viability, T/C [32]: 13.7%
- viability, T/C [33]: 98.8%
- viability, T/C [34]: 90.9%
- viability, T/C [35]: 61.7%
- viability, T/C [36]: 34.4%
- viability, T/C [37]: 24.6%
- viability, T/C [38]: 13.7%
- viability, T/C [39]: 85.1%
- viability, T/C [40]: 75%
- viability, T/C [41]: 56.3%
- viability, T/C [42]: 31.3%
- viability, T/C [43]: 22.4%
- viability, T/C [44]: 11.8%
- viability, T/C [45]: 60.9%
- viability, T/C [46]: 60%
- viability, T/C [47]: 38.8%
- viability, T/C [48]: 27.4%
- viability, T/C [49]: 19.6%
- viability, T/C [50]: 11.4%
